Assay results: US4551460A, “Pyrido[2,1-b]quinazoline derivatives useful as agents for treatment of allergic conditions and vascular disorders involving thrombosis” (priority 1983, dated 1985)
Where two headings read alike, the source gives them in different places.

Legend:
[1] = tested on: cutaneous anaphylaxis in passively sensitized rats; experiment: Inhibition of allergic mediator release in the rat passive cutaneous anaphylaxis test; type: in vivo, rat (Sprague-Dawley); details: po, p.o., read-out: ID50 inhibition of allergic mediator release (PCA test)
Procedure: (i) Inhibition of Cutaneous Anaphylaxis in Passively Sensitized Rats
(l) Preparation of Antiserum
IgE-containing rat antiserum (reaginic antiserum) was prepared according to the following procedure. Normal, male Sprague-Dawley rats (150-200 g) obtained from Charles River Laboratories, Wilmington, Mass., were immunized by an intraperitoneal injection of 0.5 ml Bordetella pertussis vaccine (Cannaught Laboratories, Willowdale, Toronto, Canada, 20 ou/ml) containing 100 μg egg albumin (Nutritional Biochemical Corp., Cleveland, Ohio). On day 16, Nippostrongylus brasiliensis (3000 larvae/0.1 ml) was administered subcutaneously and on day 21, 10 μg of egg albumin was administered intraperitoneally in 0.5 ml normal saline. On day 30, blood was collected by heart puncture and the serum was separated by centrifugation and refrigerated overnight at 5° C. […]
The passive cutaneous anaphylaxis (PCA) test was performed on 190-220 g male Sprague-Dawley rats (Charles River Breeding Laboratories, Wilmington, Mass.), in a manner similar to that described by J. Goose and A.M.J.N. Blair, Immunology, 16, 749(1969). […] The long and short axis of each wheal was measured with a metric vernier caliper and the average diameter was obtained for each reaction. […] The ID50 was calculated by the method of J. Berkson, J.Am.Stat.Assoc., 48, 565(1953).

[2] = LD50 in mice (acute toxicity); details: mouse, in vivo
[3] = tested on: leukotriene E (LTE) induced skin wheal formation in rat skin; experiment: LTE-induced skin wheal formation in rat; type: in vivo; details: rat skin wheal, read-out: ID50 (the source's name)
Procedure: (a) Methodology for LTE-induced Skin Wheal Formation in Rat. The ability of a drug to inhibit leukotriene E (LTE) induced skin wheal formation in rat skin is measured. In this model system a dose of LTE which gives a maximal wheal response, is injected (in 0.05 ml of saline) intradermally into anesthetized rats which have been pretreated for 30 minutes with 50 mg/kg of pyrilamine maleate and 4 mg/kg of methyl […] maleate (both administered intraperitoneally). The animal is then immediately treated with test drug (at 10 mg/kg, i.v.) followed by an intravenous injection of Evans blue (0.5%) into the tail vein of the animal. Thirty minutes later the animals are sacrificed and the increase in capillary permeability induced by LTE is reflected by the migration of dye into the injection point in the skin (the response being quantitated by the size, in mm, of the dye spot in the skin). The average response in 5 animals (4 intradermal injections of LTE per animal) treated with the test compound is compared with the response elicited in a similar group of animals which were not treated with the drug. For oral studies, the test animals are pretreated two hours prior to intradermal injection of LTE.

[4] = tested on: leukotriene E induced bronchoconstriction; experiment: LTE-induced bronchoconstriction in guinea pigs, in vivo (i.v. / oral); parameters: species or system guinea pig (Hartley strain); details: Cavia porcellus, read-out: ID50 (the source's name)
[5] = tested on: acetylcholine-induced constriction in guinea pig ilea; experiment: Antagonism of acetylcholine-induced constriction in guinea pig ilea; details: 5.0×10^-7 M acetylcholine; read-out: IC50 antagonism of acetylcholine-induced constrictions
Procedure: (e) Antagonism of Acetylcholine-induced Constriction in Guinea Pig Ilea
Anticholinergic activity was determined on a segment of guinea pig ileum that was suspended in a 37° C. bath of oxygenated Tyrodes solution. At 4 minute intervals, the ileum was challenged with 5.0×10^-7 M acetylcholine for sufficient time to produce a peak contraction and then washed with fresh Tyrodes solution. After the tissue response to acetylcholine had stablized, the ileum was pretreated with the standard anticholinergic, atropine sulfate, for 1 minute prior to rechallenge with acetylcholine, the contraction recorded and the tissue washed with Tyrodes solution. […] The IC50 for atropine was 1×10^-8 M. THe IC50 's for test drugs were determined by this same procedure.

[6] = po, orally (2 hours pretreatment)

CC(C)c1ccc2nc3ccc(C(=O)NCCCCn4ccnc4)cn3c(=O)c2c1 [Compound A, N-[4-(1H-imidazol-1-yl)butyl]-2-(1-methylethyl)-11-oxo-11H-pyrido[2,1-b]quinazoline-8-carboxamide]
ED50 ([1]; 10 min, 10 minute pretreatment): 20 mg/kg | LD50 ([2]; ip, intraperitoneally): 22 mg/kg | LD50 ([2]; po, orally): 775 mg/kg | ED50 ([3]; iv): 30 mg/kg | ED50 ([3]; po): 46 mg/kg | ED50 ([4]; iv): 0.9 mg/kg | ED50 [4, 6]: 47 mg/kg | IC50 [5]: 5 µM

CC(C)c1ccc2nc3ccc(C(=O)NCCCCc4cccnc4)cn3c(=O)c2c1 [Compound B, 2-(1-methylethyl)-N-[4-(3-pyridyl)butyl]-11-oxo-11H-pyrido[2,1-b]quinazoline-8-carboxamide]
ED50 ([1]; 5 min, 5 minute pretreatment): 21 mg/kg | LD50 ([2]; po, orally): > 1000 mg/kg | ED50 ([3]; iv): 15 mg/kg | ED50 ([3]; po): 70 mg/kg | ED50 ([4]; iv): 0.3 mg/kg | ED50 [4, 6]: 60 mg/kg | IC50 [5]: 7 µM
